Assay results: patent US10758534B2 (Vertex Pharmaceuticals Incorporated, priority 2014, dated 2020)

Molecular target: T1, F508del (Homo sapiens, UniProt P13569, DEL508-508)
T1 construct: expressed in transfected cells
Assay: Protocol 1: membrane potential optical assay (FLIPR III, voltage sensing dye), identification of potentiator compounds
Assay type: cell-based
Conditions: Table 3, compounds of Table 1
How it was run: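 Membrane potential in forskolin-activated, temperature-rescued F508del NIH 3T3 cells is followed with a voltage-sensing dye on FLIPR III. A chloride ion gradient created at the single addition step provides the driving force, after prior compound treatment.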

T1 sequence (P13569 with tags, fused parts or gaps DEL508-508): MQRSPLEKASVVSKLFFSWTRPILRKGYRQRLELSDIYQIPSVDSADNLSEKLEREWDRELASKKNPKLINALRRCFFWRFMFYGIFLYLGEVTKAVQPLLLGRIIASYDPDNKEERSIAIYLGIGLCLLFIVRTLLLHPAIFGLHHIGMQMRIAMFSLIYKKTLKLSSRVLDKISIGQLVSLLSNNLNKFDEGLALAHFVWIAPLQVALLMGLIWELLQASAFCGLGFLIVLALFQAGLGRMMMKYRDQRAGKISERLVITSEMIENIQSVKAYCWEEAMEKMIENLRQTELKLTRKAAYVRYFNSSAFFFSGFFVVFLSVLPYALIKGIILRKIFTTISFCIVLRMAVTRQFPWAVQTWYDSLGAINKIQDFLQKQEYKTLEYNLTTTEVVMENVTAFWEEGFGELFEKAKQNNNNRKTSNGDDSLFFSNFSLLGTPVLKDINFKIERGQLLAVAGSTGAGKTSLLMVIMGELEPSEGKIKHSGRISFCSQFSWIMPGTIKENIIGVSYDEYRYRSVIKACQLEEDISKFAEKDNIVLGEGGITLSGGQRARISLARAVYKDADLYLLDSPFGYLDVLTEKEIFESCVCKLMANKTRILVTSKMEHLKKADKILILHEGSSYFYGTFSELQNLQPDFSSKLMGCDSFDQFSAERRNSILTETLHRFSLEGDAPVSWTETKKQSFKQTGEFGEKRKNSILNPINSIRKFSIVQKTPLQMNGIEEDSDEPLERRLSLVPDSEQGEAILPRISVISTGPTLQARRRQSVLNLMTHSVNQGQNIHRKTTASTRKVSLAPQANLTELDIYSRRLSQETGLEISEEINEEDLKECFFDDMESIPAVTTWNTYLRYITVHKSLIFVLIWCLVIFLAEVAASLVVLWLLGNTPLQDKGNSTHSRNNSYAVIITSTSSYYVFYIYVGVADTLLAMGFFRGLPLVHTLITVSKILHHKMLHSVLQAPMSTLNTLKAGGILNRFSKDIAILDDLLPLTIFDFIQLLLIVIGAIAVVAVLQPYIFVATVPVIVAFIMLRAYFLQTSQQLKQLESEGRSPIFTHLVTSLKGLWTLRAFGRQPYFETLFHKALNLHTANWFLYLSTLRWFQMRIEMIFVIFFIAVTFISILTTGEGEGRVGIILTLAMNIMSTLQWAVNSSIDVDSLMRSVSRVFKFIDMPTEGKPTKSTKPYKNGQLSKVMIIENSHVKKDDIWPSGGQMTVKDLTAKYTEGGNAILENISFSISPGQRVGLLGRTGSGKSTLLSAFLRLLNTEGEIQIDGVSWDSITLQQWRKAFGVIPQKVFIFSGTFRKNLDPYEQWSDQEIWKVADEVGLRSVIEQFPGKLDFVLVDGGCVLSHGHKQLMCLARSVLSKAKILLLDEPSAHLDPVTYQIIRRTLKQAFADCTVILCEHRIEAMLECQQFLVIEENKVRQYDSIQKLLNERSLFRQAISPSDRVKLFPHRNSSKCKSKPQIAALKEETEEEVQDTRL

EC30 | Structure (SMILES)
+++ (“+++” means <3 uM) | CC(C)Oc1ccc(-c2ccc(C(=O)NS(=O)(=O)c3cccc(N)n3)c(N3CCC(C)(C)CC3)n2)cn1 [Compound 1134, N-[(6-amino-2-pyridyl)sulfonyl]-2-(4,4-dimethyl-1-piperidyl)-6-(6-isopropoxy-3-pyridyl)pyridine-3-carboxamide]
++ (“++” means between 3 uM and 10 uM) | Cc1cc(C)c(Oc2nc(C3CCOC(C)(C)C3)ccc2C(=O)NS(=O)(=O)c2cccc(N)n2)c(C)c1 (centres unmarked) [Compound 1466, N-[(6-amino-2-pyridyl)sulfonyl]-6-(2,2-dimethyltetrahydropyran-4-yl)-2-(2,4,6-trimethylphenoxy)pyridine-3-carboxamide]
++ (“++” means between 3 uM and 10 uM) | CNc1cc(S(=O)(=O)NC(=O)c2cc(C(C)(C)C)nn2Cc2c(C)cccc2C)ccn1 [Compound 821, 5-tert-butyl-2-[(2,6-dimethylphenyl)methyl]-N-[[12-(methylamino)-4-pyridyl]sulfonyl]pyrazole-3-carboxamide]
++ (“++” means between 3 uM and 10 uM) | CC(C)(C)c1ccc(C(=O)NS(=O)(=O)c2cccc(N)n2)c(Oc2ccccc2)n1 [Compound 1046, N-[(6-amino-2-pyridyl)sulfonyl]-6-tert-butyl-2-phenoxy-pyridine-3-carboxamide]
+++ (“+++” means <3 uM) | Cc1cc(C)c(Oc2nc3c(cc2C(=O)NS(=O)(=O)c2ccc[nH]c2=O)CCCC3(C)C)c(C)c1 [Compound 899, 8,8-dimethyl-N-[(2-oxo-1H-pyridin-3-yl)sulfonyl]-2-(2,4,6-trimethylphenoxy)-6,7-dihydro-5H-quinoline-3-carboxamide]
+++ (“+++” means <3 uM) | CCCC/C=C/c1cc(C(=O)NS(=O)(=O)c2cccc(N)n2)c(N2C[C@@H](C)CC2(C)C)nc1C(C)(C)C [Compound 1377, N-[(6-amino-2-pyridyl)sulfonyl]-6-tert-butyl-5-[(E)-hex-1-enyl]-2-[(4S)-2,2,4-trimethylpyrrolidin-1-yl]pyridine-3-carboxamide]
+++ (“+++” means <3 uM) | CCOc1cc(C)cc(-c2ccc(C(=O)NS(=O)(=O)c3cccc(N)n3)c(N3C[C@@H](C)CC3(C)C)n2)n1 [Compound 1512, N-[(6-amino-2-pyridyl)sulfonyl]-6-(6-ethoxy-4-methyl-2-pyridyl)-2-[(4S)-2,2,4-trimethylpyrrolidin-1-yl]pyridine-3-carboxamide]
+++ (“+++” means <3 uM) | Cc1cc(C#N)cc(C)c1Oc1nc(C(C)(C)C)ccc1C(=O)NS(=O)(=O)c1cccc(N)n1 [Compound 1089, N-[(6-amino-2-pyridyl)sulfonyl]-6-tert-butyl-2-(4-cyano-2,6-dimethyl-phenoxy)pyridine-3-carboxamide]
+++ (“+++” means <3 uM) | CCOCCOc1ccn(-c2ccc(C(=O)NS(=O)(=O)c3cccnc3N)c(N3C[C@@H](C)CC3(C)C)n2)n1 [Compound 1742, N-[(2-amino-3-pyridyl)sulfonyl]-6-[3-(2-ethoxyethoxy)pyrazol-1-yl]-2-[(4S)-2,2,4-trimethylpyrrolidin-1-yl]pyridine-3-carboxamide]
+++ (“+++” means <3 uM) | CCOc1cccc2c1CN(Cc1c(C)cc(C)cc1C)C2(C)C(=O)NS(=O)(=O)c1cnc(NC(C)=O)s1 (centres unmarked) [Compound 1555, N-(2-acetamidothiazol-5-yl)sulfonyl-4-ethoxy-1-methyl-2-[(2,4,6-trimethylphenyl)methyl]isoindoline-1-carboxamide]
+++ (“+++” means <3 uM) | CCOc1cccc2c1CN(Cc1c(C)cc(C)cc1C)C2(C)C(=O)NS(=O)(=O)c1ccc(C(C)C)c(N)c1 (centres unmarked) [Compound 1562, N-(3-amino-4-isopropyl-phenyl)sulfonyl-4-ethoxy-1-methyl-2-[(2,4,6-trimethylphenyl)methyl]isoindoline-1-carboxamide]
++ (“++” means between 3 uM and 10 uM) | C[C@@H]1CN(c2ncc(F)cc2C(=O)NS(=O)(=O)c2cccc(N)n2)C(C)(C)C1 [Compound 1607, N-[(6-amino-2-pyridyl)sulfonyl]-5-fluoro-2-[(4S)-2,2,4-trimethylpyrrolidin-1-yl]pyridine-3-carboxamide]
+++ (“+++” means <3 uM) | Cc1cc(C)c(Oc2nc(C3(C)CC3)ccc2C(=O)NS(=O)(=O)c2cccc(N)c2)c(C)c1 [Compound 826, N-(3-aminophenyl)sulfonyl-6-(1-methylcyclopropyl)-2-(2,4,6-trimethylphenoxy)pyridine-3-carboxamide]
+++ (“+++” means <3 uM) | Cc1cc(C)c(CN2Cc3ccccc3C2(C)C(=O)NS(=O)(=O)c2cccc(N)n2)c(C)c1 (centres unmarked) [Compound 895, N-[(6-amino-2-pyridyl)sulfonyl]-1-methyl-2-[(2,4,6-trimethylphenyl)methyl]isoindoline-1-carboxamide]
++ (“++” means between 3 uM and 10 uM) | Cc1cc(C)c(Oc2nc(-c3ccc(O)cc3)ccc2C(=O)NS(=O)(=O)c2cccc(N)n2)c(C)c1 [Compound 1344, N-[(6-amino-2-pyridyl)sulfo]-6-(4-hydroxyphenyl)-2-(2,4,6-trimethylphenoxy)pyridine-3-carboxamide]
+++ (“+++” means <3 uM) | C=C(C)c1ccc(C(=O)NS(=O)(=O)c2cccc(N)n2)c(N2C[C@@H](C)CC2(C)C)n1 [Compound 1423, N-[(6-amino-2-pyridyl)sulfonyl]-6-isopropenyl-2-[(4S)-2,2,4-trimethylpyrrolidin-1-yl]pyridine-3-carboxamide]
++ (“++” means between 3 uM and 10 uM) | COCC1CCCN(c2nc(-c3ccc(OC(C)C)nc3)ccc2C(=O)NS(=O)(=O)c2cccc(N)n2)C1 (centres unmarked) [Compound 1116, N-[(6-amino-2-pyridyl)sulfonyl]-6-(6-isopropoxy-3-pyridyl)-2-[3-(methoxymethyl)-1-piperidyl]pyridine-3-carboxamide]
+++ (“+++” means <3 uM) | CC1CN(c2ncccc2C(=O)NS(=O)(=O)c2cccc(Nc3cccc(Cl)c3)n2)C(C)(C)C1 (centres unmarked) [Compound 1841, N—[[6-(3-chloroanilino)-2-pyridyl]sulfonyl]-2-(2,2,4-trimethylpyrrolidin-1-yl)pyridine-3-carboxamide]
+++ (“+++” means <3 uM) | CC(C)Oc1ccc(-c2ccc(C(=O)NS(=O)(=O)c3cccc(N)n3)c(N3CCC(C)(C)C3C)n2)cn1 (centres unmarked) [Compound 1327, N-[(6-amino-2-pyridyl)sulfonyl]-6-(6-isopropoxy-3-pyridyl)-2-(2,3,3-trimethylpyrrolidin-1-yl)pyridine-3-carboxamide]
+++ (“+++” means <3 uM) | CC1CN(c2nc(OC(C)C(C)C)c(F)cc2C(=O)NS(=O)(=O)c2cccc(N)n2)C(C)(C)C1 (centres unmarked) [Compound 1810, N-[(6-amino-2-pyridyl)sulfonyl]-6-(1,2-dimethylpropoxy)-5-fluoro-2-(2,2,4-trimethylpyrrolidin-1-yl)pyridine-3-carboxamide]
+++ (“+++” means <3 uM) | CCOc1cc(F)cc(-c2ccc(C(=O)NS(=O)(=O)c3cccc(N)n3)c(Oc3c(C)cc(C)cc3C)n2)c1 [Compound 1255, N-[(6-amino-2-pyridyl)sulfonyl]-6-(3-ethoxy-5-fluoro-phenyl)-2-(2,4,6-trimethylphenoxy)pyridine-3-carboxamide]
+++ (“+++” means <3 uM) | Cc1ccc(-c2ccc(C(=O)NS(=O)(=O)c3nccnc3N)c(Oc3c(C)cc(C)cc3C)n2)cc1 [Compound 1047, N-(3-aminopyrazin-2-yl)sulfonyl-6-(p-tolyl)-2-(2,4,6-trimethylphenoxy)pyridine-3-carboxamide]
+++ (“+++” means <3 uM) | CCOc1cccc2c1CN(Cc1c(C)cc(C)cc1C)C2(C)C(=O)NS(=O)(=O)c1ccc2cc[nH]c2c1 (centres unmarked) [Compound 1393, 4-ethoxy-N-(1H-indol-6-ylsulfonyl)-1-methyl-2-[(2,4,6-trimethylphenyl)methyl]isoindoline-1-carboxamide]

Structure (SMILES) | EC30
CNC1CCN(S(=O)(=O)NC(=O)c2ccc(-c3cc(F)cc(OCC(C)C)c3)nc2N2CC(C)CC2(C)C)C1 (centres unmarked) [Compound 1554, 6-(3-fluoro-5-isobutoxy-phenyl)-N—[3-(methylamino)pyrrolidin-1-yl]sulfonyl-2-(2,2,4-trimethylpyrrolidin-1-yl)pyridine-3-carboxamide] | +++ (“+++” means <3 uM)
CC(C)COc1cc(-c2ccc(C(=O)NS(=O)(=O)c3cccc(N)n3)c(N3C[C@@H](C)CC3(C)C)n2)ccn1 [Compound 1618, N-[(6-amino-2-pyridyl)sulfonyl]-6-(2-isobutoxy-4-pyridyl)-2-[(4S)-2,2,4-trimethylpyrrolidin-1-yl]pyridine-3-carboxamide] | +++ (“+++” means <3 uM)
CC(C)COc1cc(F)cc(-c2ccc(C(=O)NS(=O)(=O)c3cccc(N)n3)c(OC(C)C3CCC3)n2)c1 (centres unmarked) [Compound 1238, N-[(6-amino-2-pyridyl)sulfonyl]-2-(1-cyclobutylethoxy)-6-(3-fluoro-5-isobutoxy-phenyl)pyridine-3-carboxamide] | +++ (“+++” means <3 uM)
CC(C)COc1cc(F)cc(-c2ccc(C(=O)NS(=O)(=O)N3CCC(O)C3)c(N3C[C@@H](C)CC3(C)C)n2)c1 (stereo partly drawn) [Compound 1648, 6-(3-fluoro-5-isobutoxy-phenyl)-N-(3-hydroxypyrrolidin-1-yl)sulfonyl-2-[(4S)-2,2,4-trimethylpyrrolidin-1-yl]pyridine-3-carboxamide] | +++ (“+++” means <3 uM)
CCOC1CCCN(c2nc(-c3cc(F)cc(OCC(C)C)c3)ccc2C(=O)NS(=O)(=O)c2ccn[nH]2)C1 (centres unmarked) [Compound 843, 2-(3-ethoxy-1-piperidyl)-6-(3-fluoro-5-isobutoxy-phenyl)-N-(1H-pyrazol-5-ylsulfonyl)pyridine-3-carboxamide] | ++ (“++” means between 3 uM and 10 uM)
CC(C)COc1cc(F)cc(-c2ccc(C(=O)NS(=O)(=O)c3ccccn3)c(N3C[C@@H](C)CC3(C)C)n2)c1 [Compound 1832, 6-(3-fluoro-5-isobutoxy-phenyl)-N-(2-pyridylsulfonyl)-2-[(4S)-2,2,4-trimethylpyrrolidin-1-yl]pyridine-3-carboxamide] | +++ (“+++” means <3 uM)
